Experimental data reported in PMC2430034, “Structural Development Studies of Subtype-Selective Ligands for Peroxisome Proliferator-Activated Receptors (PPARs) Based on the 3,4-Disubstituted Phenylpropanoic Acid Scaffold as a Versatile Template” (PPAR Research, 2008).
pEC50: −log10 of the molar value. Like-named read-outs stand apart in the source and are kept apart here.

Tests used:
Format in all cases: cell-based
PPARγ [1] = target: T1, PPARγ (Homo sapiens, UniProt P37231); assay: Nuclear receptor cross-reactivity transactivation, PPARγ
T1 construct: expressed in transfected cells
T1 sequence (P37231 1-505): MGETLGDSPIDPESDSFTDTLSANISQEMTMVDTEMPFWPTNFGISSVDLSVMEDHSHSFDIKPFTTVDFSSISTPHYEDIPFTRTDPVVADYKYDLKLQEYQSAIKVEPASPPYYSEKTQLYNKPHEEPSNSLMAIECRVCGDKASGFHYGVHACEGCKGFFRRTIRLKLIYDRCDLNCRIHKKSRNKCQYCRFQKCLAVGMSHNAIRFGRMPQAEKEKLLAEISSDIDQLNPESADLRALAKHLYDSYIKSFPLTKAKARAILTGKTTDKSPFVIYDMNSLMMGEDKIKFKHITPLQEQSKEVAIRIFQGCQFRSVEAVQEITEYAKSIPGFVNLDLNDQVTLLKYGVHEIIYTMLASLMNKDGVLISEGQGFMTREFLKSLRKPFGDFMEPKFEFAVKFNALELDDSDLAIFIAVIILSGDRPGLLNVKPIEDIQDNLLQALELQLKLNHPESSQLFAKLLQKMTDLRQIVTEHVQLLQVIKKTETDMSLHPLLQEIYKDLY

VDR = target: T2, VDR (Homo sapiens, UniProt P11473); assay: Nuclear receptor cross-reactivity transactivation, VDR
T2 construct: expressed in transfected cells
T2 sequence (P11473 1-427): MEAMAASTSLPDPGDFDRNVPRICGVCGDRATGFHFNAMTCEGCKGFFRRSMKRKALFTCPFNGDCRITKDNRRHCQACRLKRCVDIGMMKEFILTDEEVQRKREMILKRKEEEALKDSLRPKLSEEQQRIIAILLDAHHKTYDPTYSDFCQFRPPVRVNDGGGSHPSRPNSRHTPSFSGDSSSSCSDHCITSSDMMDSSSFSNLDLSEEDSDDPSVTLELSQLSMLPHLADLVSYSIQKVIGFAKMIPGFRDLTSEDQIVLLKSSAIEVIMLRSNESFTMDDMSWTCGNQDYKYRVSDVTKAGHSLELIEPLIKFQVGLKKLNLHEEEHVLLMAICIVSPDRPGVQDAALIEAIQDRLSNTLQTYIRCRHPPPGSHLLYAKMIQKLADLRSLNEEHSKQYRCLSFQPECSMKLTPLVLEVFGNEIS

LXRα = target: T3, LXRα (Homo sapiens, UniProt Q13133); assay: Nuclear receptor cross-reactivity transactivation, LXRα
T3 construct: expressed in transfected cells
T3 sequence (Q13133 1-447): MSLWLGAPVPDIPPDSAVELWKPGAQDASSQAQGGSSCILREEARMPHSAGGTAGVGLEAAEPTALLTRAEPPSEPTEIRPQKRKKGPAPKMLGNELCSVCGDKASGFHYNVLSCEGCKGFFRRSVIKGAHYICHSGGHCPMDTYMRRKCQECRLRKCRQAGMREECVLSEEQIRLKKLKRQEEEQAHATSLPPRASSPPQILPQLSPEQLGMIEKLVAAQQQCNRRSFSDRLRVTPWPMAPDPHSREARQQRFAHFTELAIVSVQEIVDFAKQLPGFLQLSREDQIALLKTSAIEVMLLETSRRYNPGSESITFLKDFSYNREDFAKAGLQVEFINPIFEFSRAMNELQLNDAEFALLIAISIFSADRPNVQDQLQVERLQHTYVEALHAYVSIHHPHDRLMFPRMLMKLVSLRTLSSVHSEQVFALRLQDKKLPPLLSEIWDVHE

RARα = target: T4, RARα (Homo sapiens, UniProt P10276); assay: Nuclear receptor cross-reactivity transactivation, RARα
T4 construct: expressed in transfected cells
T4 sequence (P10276 1-462): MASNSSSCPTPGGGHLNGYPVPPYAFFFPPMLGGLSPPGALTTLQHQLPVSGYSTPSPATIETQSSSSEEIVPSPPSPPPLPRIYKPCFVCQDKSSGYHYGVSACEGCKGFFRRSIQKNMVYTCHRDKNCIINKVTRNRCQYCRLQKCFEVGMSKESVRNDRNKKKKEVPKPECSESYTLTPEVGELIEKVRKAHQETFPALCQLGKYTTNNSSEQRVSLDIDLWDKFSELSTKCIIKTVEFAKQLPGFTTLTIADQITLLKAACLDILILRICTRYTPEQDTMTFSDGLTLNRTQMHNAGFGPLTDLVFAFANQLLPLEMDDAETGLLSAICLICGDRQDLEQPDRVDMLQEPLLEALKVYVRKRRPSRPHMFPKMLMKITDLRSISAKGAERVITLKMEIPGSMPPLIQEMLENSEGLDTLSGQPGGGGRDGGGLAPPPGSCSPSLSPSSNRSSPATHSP

RXRα = target: T5, RXRα (Homo sapiens, UniProt P19793); assay: Nuclear receptor cross-reactivity transactivation, RXRα
T5 construct: expressed in transfected cells
T5 sequence (P19793 1-462): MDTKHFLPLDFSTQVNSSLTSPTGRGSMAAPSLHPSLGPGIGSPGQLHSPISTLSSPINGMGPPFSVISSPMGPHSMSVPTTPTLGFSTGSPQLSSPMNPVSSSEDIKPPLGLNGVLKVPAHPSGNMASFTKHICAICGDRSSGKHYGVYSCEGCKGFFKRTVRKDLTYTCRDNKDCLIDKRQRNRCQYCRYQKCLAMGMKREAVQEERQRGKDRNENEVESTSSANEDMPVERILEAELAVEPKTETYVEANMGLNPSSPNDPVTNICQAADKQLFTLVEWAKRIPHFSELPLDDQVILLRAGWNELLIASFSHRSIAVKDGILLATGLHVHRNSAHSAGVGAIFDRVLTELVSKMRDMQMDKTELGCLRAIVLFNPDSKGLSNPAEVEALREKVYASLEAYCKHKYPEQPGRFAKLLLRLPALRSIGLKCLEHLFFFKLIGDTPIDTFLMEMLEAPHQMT

PPARγ [2] = target: T6, PPARγ (Homo sapiens, UniProt P37231); assay: cell-based; settings: read-out: Transactivation activity EC50 PPARγ
T6 sequence (P37231 238-505 limits assumed): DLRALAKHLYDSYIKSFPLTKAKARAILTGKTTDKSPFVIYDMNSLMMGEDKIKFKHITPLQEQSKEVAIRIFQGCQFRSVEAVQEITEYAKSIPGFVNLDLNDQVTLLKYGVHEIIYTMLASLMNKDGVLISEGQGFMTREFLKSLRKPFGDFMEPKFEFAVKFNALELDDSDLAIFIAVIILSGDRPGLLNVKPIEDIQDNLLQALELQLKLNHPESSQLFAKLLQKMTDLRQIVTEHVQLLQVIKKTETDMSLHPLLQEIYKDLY

PPARα [3] = target: T7, PPARα (Homo sapiens, UniProt Q07869); assay: PPARα-GAL4 chimeric receptor transactivation in HEK-293 cells; settings: PPAR-GAL4 chimeric receptors, transiently transfected HEK-293 cells; ia = inactive at 10 μM
T7 sequence (Q07869 200-468 limits assumed): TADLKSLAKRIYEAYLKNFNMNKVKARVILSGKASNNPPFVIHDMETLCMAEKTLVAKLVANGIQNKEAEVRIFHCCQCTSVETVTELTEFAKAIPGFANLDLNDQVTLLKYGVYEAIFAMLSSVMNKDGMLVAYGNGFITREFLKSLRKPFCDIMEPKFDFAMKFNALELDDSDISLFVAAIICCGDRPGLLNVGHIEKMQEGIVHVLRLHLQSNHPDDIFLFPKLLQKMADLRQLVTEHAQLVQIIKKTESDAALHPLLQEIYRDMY

PPARδ = target: T8, PPARδ (Homo sapiens, UniProt Q03181); assay: cell-based; settings: PPAR-GAL4 chimeric receptors, transiently transfected HEK-293 cells; ia = inactive at 10 μM; read-out: Transactivation activity EC50 PPARδ
T8 sequence (Q03181 171-441 limits assumed): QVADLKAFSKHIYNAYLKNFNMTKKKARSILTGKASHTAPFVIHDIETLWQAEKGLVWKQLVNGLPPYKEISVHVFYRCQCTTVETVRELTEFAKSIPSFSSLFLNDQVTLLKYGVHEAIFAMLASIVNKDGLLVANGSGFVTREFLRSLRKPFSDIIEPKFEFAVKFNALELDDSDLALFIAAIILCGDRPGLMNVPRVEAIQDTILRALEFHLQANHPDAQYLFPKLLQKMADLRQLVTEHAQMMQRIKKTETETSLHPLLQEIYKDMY

PPARα [4] = target: T9, PPARα (Rattus norvegicus, UniProt P37230); assay: Rat PPARα transactivation (species differences); settings: CHO-K1 cells (footnote of Table 1)
T9 construct: expressed in transfected cells
T9 sequence (P37230 1-468): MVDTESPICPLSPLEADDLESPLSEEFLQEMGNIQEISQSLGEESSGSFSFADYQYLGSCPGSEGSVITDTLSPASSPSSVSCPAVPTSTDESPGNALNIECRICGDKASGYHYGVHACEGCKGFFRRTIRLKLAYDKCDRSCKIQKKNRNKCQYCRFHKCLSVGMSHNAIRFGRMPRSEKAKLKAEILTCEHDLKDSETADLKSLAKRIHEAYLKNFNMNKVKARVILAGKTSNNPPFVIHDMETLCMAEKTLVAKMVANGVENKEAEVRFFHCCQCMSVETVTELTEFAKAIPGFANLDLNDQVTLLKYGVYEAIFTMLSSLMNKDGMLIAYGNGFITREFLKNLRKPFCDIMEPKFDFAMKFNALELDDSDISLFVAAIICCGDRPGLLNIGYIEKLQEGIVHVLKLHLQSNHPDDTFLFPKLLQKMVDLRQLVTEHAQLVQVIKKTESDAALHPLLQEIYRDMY

PPARα [5] = target: T7, PPARα; assay: PPARα-GAL4 chimeric receptor transactivation in CHO-K1 cells; settings: human PPARα; CHO-K1 cells (footnote of Table 1); read-out: Transactivation activity EC50 PPARα Human
PPARα [6] = target: T10, PPARα (Canis lupus familiaris, UniProt Q95N78); assay: Dog PPARα transactivation (species differences); settings: CHO-K1 cells (footnote of Table 1)
T10 construct: expressed in transfected cells
T10 sequence (Q95N78 1-468): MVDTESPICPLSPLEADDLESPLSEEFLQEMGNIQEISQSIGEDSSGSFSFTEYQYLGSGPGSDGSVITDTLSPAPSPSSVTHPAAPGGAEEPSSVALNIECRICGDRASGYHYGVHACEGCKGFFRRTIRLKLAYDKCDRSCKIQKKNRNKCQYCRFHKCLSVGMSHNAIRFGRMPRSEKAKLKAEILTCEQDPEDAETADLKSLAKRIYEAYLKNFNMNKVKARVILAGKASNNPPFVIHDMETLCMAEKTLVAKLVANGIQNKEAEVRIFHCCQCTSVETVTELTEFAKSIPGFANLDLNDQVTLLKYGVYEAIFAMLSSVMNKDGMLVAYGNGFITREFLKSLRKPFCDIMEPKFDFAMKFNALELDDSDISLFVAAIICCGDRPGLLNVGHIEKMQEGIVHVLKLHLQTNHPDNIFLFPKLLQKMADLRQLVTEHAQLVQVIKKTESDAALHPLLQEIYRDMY

[7] = concentrations up to 1 μM (Figure 4)
[8] = concentrations up to 300 nM (Figure 7)

SMILES | activation of PPARγ (PPARγ [1]; [7]) | activation of VDR (VDR; [7]) | activation of LXRα (LXRα; [7]) | activation of RARα (RARα; [7]) | activation of RXRα (RXRα; [7]) | pEC50 (PPARγ [2]; PPAR-GAL4 chimeric receptors, transiently transfected HEK-293 cells, ia = inactive at 10 μM) | pEC50 (PPARα [3]) | pEC50 (PPARδ) | activation of PPARγ (PPARγ [1]; [8]) | activation of VDR (VDR; [8]) | activation of LXRα (LXRα; [8]) | activation of RARα (RARα; [8]) | activation of RXRα (RXRα; [8]) | pEC50 (PPARγ [2]) | pEC50 (PPARα [4]) | pEC50 (PPARα [5]) | pEC50 (PPARα [6])
CC[C@@H](Cc1ccc(OC)c(CNC(=O)c2ccc(C(F)(F)F)cc2F)c1)C(=O)O [Compound 41, (S)-2-{3-[(2-fluoro-4-trifluoromethylbenzoylamino)methyl]-4-methoxybenzyl}butyric acid] | did not significantly activate | did not significantly activate | did not significantly activate | did not significantly activate | did not significantly activate | 5.72 | 8.00 | 7.92 |  |  |  |  |  |  |  |  | 
CCCCOc1ccc(C[C@H](CC)C(=O)O)cc1CNC(=O)c1ccc(C(F)(F)F)cc1F [Compound 65, (S)-2-{3-[(2-fluoro-4-trifluoromethylbenzoylamino)methyl]-4-buthoxy-benzyl}butyric acid] |  |  |  |  |  |  | 6.60 | 9.04 | did not significantly activate | did not significantly activate | did not significantly activate | did not significantly activate | did not significantly activate | 5.96 |  |  | 
CC[C@@H](Cc1ccc(OC)c(C(=O)NCc2ccc(C(F)(F)F)cc2)c1)C(=O)O [KCL, (S)-2-[4-methoxy-3-(4-trifluoromethylbenzylcarbamoyl)phenylmethyl]butyric acid] |  |  |  |  |  |  |  |  |  |  |  |  |  |  | 5.28 | 7.22 | 6.80
